This is an account of results in patent US20210260022A1, “SYNERGY FOR INCREASING ENERGY EXPENDITURE AND INSULIN SENSITIVITY” (The Board of Supervisors of Louisiana State University and …, priority 2018, published 2021).

The test system of assay [1] is human adipocytes. Kind of assay: Acute agonist-stimulated lipolysis (glycerol release) in untreated and NRBC-treated adipocytes. It counts as cell-based. The following applies: 4.5 hour agonist exposure. As for the experimental part:
Acute agonist-stimulated glycerol release in untreated and NRBC-treated adipocytes. After 7d treatment with vehicle or NRBC, cells were exposed to receptor agonists dissolved in KRB with 1% BSA for 4.5 hours. Supernatants were removed for measurement of glycerol.
On the day of the acute lipolysis assay, cell cultures were rinsed with KRB to remove serum and exposed to the individual receptor agonists in KRB. Lipolysis was measured as glycerol released into the cell supernatant over 4.5 hour of agonist exposure. Non-hydrolyzable cAMP was also evaluated in each experiment as a positive control to measure the maximum capacity for PKA-stimulated lipolysis.

Assay [2] deals with human adipocytes. As to the kind of experiment: qRT-PCR in human adipocytes (hADSC) treated two days with naringenin and inhibitors. The assay is classed as cell-based. The following applies: 2d treatment. As for the experimental part: Human white adipocytes were treated for 2d with naringenin in the presence of inhibitors of metabolic pathways to determine the mechanism of action for stimulating fat oxidation and thermogenic energy expenditure.
Naringenin increased UCP1 and CPT1β mRNA induction compared to control (p<0.001). PPARα and PPARγ inhibition reduced UCP1 and CPT1β mRNA expression (p<0.001). Each experiment was conducted with three biological replicates and four technical replicates.
The whole orange extract was dissolved in DMSO at 15 mM (based on 28% naringenin content) and added to cells at a dilution of 1:500 to achieve a final concentration of 30 μM. The inhibitors added to the naringenin-treated cells included: peroxisome proliferator-activated receptor alpha (PPARα) antagonist GW6471 and peroxisome proliferator-activated receptor gamma (PPARγ) antagonist GW9662 (Cayman Chemical, Ann Arbor, Mich.) at 10 μM concentration, protein kinase A (PKA) inhibitor H89 (Millipore Sigma, Burlington, Mass.) at 20 μM concentration, and protein kinase G (PKG) inhibitor […] (Biolog Life Science Institute, AXXORA, LLC, Farmingdale, N.Y.) at 50 μM concentration. GW6471 and GW9662 were dissolved in DMSO at 1000×, H89 was dissolved in PBS at 500×, and Rp-8-pCPT-cGMPS was dissolved in PBS at 100× prior to dilution in cell culture medium. Following a two-day treatment, the cells were harvested with Trizol reagent. RNeasy Mini Kit (Qiagen, Germantown, Md.) was used to isolate total RNA following manufacturer's protocol. The expression of UCP1, CPT1β, and GLUT4 was quantified with one-step reverse transcriptase PCR using the reverse PCR primer to prime cDNA synthesis as previously described.^6
On the technique in general: Real-time PCR tracks product formation cycle by cycle.

In assay [3] the test system is human adipocytes. Kind of assay: UCP1 mRNA in human adipocytes, naringenin combined with other botanical compounds. It counts as cell-based. The following applies: 5 μM naringenin in combination. As for the experimental part: Human adipocytes were treated with 5 μM naringenin or with naringenin in combination with other botanical compounds to evaluate synergy in inducing UCP1 mRNA expression. A range of other botanical compounds such as […]

The test system of assay [4] is mice. The conditions noted are these: 100 mg/kg injected daily; cited from earlier work.
Assay [5] deals with human adipocytes. As to the kind of experiment: mRNA expression (Taqman RT-PCR) in differentiated human adipocytes after 7 day treatment. The assay is classed as cell-based. The conditions noted are these: for UCP1 and GLUT4 expression, carotenoid alone: 2 μM carotenoid; for UCP1 and GLUT4 expression, carotenoid alone / UCP1 and GLUT4 expression, carotenoid in combination with naringenin extract: seven days; for UCP1 and GLUT4 expression, carotenoid in combination with naringenin extract: 8 μM naringenin extract + 2 μM carotenoid; for gene expression, carotenoid in combination with NR: compared with BC + NR.

The conditions of assay [6]: 4 mg/day, six months, obese children; cited from earlier work.
Assay [7] has as its system mice. The conditions noted are these: 150 mg/kg/day dietary; cited from earlier work.

Turning to `CC[C@H](C)[C@@H]1NC(=O)[C@H](CCCNC(=N)N)NC(=O)[C@H](CC(=O)O)NC(=O)[C@H](CCSC)NC(=O)[C@H](CCCNC(=N)N)NC(=O)CNC(=O)CNC(=O)[C@H](Cc2ccccc2)NC(=O)[C@@H](NC(=O)[C@H](CO)NC(=O)[C@H](CO)NC(=O)[C@H](CCCNC(=N)N)NC(=O)[C@H](CCCNC(=N)N)NC(=O)[C@H](CC(C)C)NC(=O)[C@@H](N)CO)CSSC[C@@H](C(=O)N[C@@H](CC(N)=O)C(=O)N[C@@H](CO)C(=O)N[C@@H](Cc2ccccc2)C(=O)N[C@@H](CCCNC(=N)N)C(=O)N[C@@H](Cc2ccc(O)cc2)C(=O)O)NC(=O)CNC(=O)[C@H](CC(C)C)NC(=O)CNC(=O)[C@H](CO)NC(=O)[C@H](CCC(N)=O)NC(=O)[C@H](C)NC(=O)CNC1=O` [ANP], the “lipolysis stimulated by the agonist (glycerol release)” value (“lipolysis stimulated by the agonist” for short) in the assay on human adipocytes [1] is on record as “highest levels of lipolysis”.

With `Nc1nc2c(nc(Sc3ccc(Cl)cc3)n2[C@@H]2O[C@@H]3CO[P@@](=O)(S)O[C@H]3[C@H]2O)c(=O)[nH]1` [Biolog C013, reference compound], the “Induction of UCP1 and CPT-1b by naringenin in the presence of the inhibitor” value (from here on “Induction of UCP1 and CPT-1b … of the inhibitor”) in the assay with human adipocytes [2] was “unaffected”.

In the case of `Nc1ncnc2c1ncn2[C@@H]1O[C@@H]2COP(=O)(O)O[C@H]2[C@H]1O` [Cyclic AMP], the “lipolysis stimulated by the agonist” value in the assay with human adipocytes [1] is “greater lipolysis activity than any individual receptor ligand”.

Turning to `CC12CCC(CC1)C(C)(C)O2` [Ecalyptol], the “synergy with naringenin in increasing UCP1 mRNA levels” value in the assay with human adipocytes [3] is on record as “did not synergize”.

Turning to `CCC(=O)NC[C@H](Cc1ccc(OCCc2nc(-c3ccccc3)oc2C)cc1)N/C(C)=C\C(=O)c1ccc(C(F)(F)F)cc1` [GW6471, reference compound], in the assay with human adipocytes [2], the “Induction of UCP1 and CPT-1b … of the inhibitor” value is given as “abolished”.

On to `O=C(Nc1ccccc1)c1cc([N+](=O)[O-])ccc1Cl` [GW9661, reference compound], for which the “Induction of UCP1 and CPT-1b … of the inhibitor” value in the assay on human adipocytes [2] is on record as “abolished”.

As to `O=S(=O)(NCCNC/C=C/c1ccc(Br)cc1)c1cccc2cnccc12` [H89, reference compound], the “Induction of UCP1 and CPT-1b … of the inhibitor” value with human adipocytes [2] is given as “partially reduced”.

Consider `CCCCCCCC/C=C\CCCCCCCC(=O)NCCO` [OEA, oleoylethanolamide], for which, in the assay on human adipocytes [3], the “synergy with naringenin in increasing UCP1 mRNA levels” value is listed as “did not synergize”.

Take `CC1=C(/C=C/C(C)=C/C=C/C(C)=C/C(=O)O)C(C)(C)CCC1` [atRA, All-trans retinoic acid]: the “body weight and adiposity” value in the assay on mice [4] is “reduction in body weight and adiposity”.

Take `CC1=C(/C=C/C(C)=C/C=C/C(C)=C/C=C/C=C(C)/C=C/C=C(C)/C=C/C2=C(C)CCCC2(C)C)C(C)(C)CCC1` [beta carotene, β-Carotene]: the “UCP1 and GLUT4 expression, carotenoid alone” value in the assay on human adipocytes [5] was “no effect”. In addition, the “RNA expression of uncoupling protein-1, adipose tissue glyceride lipase and adiponectin” value in the assay on human adipocytes [5] (beta carotene at 1 micromolar) is reported as “increase RNA expression”. In assay [6], the “BMI z-score, subcutaneous and visceral adipose tissue, waist circumference” value is reported as “reduction in BMI z-score, subcutaneous adipose tissue, visceral adipose tissue, waist circumference”; the insulin sensitivity entry is “improved insulin sensitivity”. Besides, the “adiposity, food intake, bodyweight” value with mice [7] is “reduced adiposity without altering food intake or bodyweight”.

With `CC(CCc1ccc(O)cc1)NCCc1ccc(O)c(O)c1` (stereo not shown) [dobutamine], the “lipolysis stimulated by the agonist” value in the assay on human adipocytes [1] is “comparable to isoproterenol”.

With `CC1=C[C@H](O)CC(C)(C)[C@H]1/C=C/C(C)=C/C=C/C(C)=C/C=C/C=C(C)/C=C/C=C(C)/C=C/C1=C(C)C[C@@H](O)CC1(C)C` [lutein, Lutein], in the assay with human adipocytes [5], the “UCP1 and GLUT4 expression, carotenoid alone” value was “no effect”; the “UCP1 and GLUT4 expression, carotenoid in combination with naringenin extract” value was “act synergistically”; the “gene expression, carotenoid in combination with NR” value was “synergistic effect”.

Turning to `CC(C)=CCC/C(C)=C/C=C/C(C)=C/C=C/C(C)=C/C=C/C=C(C)/C=C/C=C(C)/C=C/C=C(\C)CCC=C(C)C` [lycopene, Lycopene], in the assay on human adipocytes [5], the “UCP1 and GLUT4 expression, carotenoid alone” value was “no effect”; the “UCP1 and GLUT4 expression, carotenoid in combination with naringenin extract” value is reported as “act synergistically”; the “gene expression, carotenoid in combination with NR” value is “synergistic effect”.

For the compound “PTH: parathyroid hormone (1-34) (SVSEIQLMHNLGKHLNSMERVEWLRKKLQDVHNF; Parathyroid hormone; UniProt P01270 32-65, looked up, fragment)”, the “lipolysis stimulated by the agonist” value with human adipocytes [1] is “highest levels of lipolysis”.
